Experimental data from ChEMBL document CHEMBL1158381, “Molecular properties of psychopharmacological drugs determining non-competitive inhibition of 5-HT3A receptors” (Eur J Med Chem, 2009).

Target: T1, 5-hydroxytryptamine receptor 3A (Homo sapiens) (UniProt P46098)
T1 sequence (whole entry): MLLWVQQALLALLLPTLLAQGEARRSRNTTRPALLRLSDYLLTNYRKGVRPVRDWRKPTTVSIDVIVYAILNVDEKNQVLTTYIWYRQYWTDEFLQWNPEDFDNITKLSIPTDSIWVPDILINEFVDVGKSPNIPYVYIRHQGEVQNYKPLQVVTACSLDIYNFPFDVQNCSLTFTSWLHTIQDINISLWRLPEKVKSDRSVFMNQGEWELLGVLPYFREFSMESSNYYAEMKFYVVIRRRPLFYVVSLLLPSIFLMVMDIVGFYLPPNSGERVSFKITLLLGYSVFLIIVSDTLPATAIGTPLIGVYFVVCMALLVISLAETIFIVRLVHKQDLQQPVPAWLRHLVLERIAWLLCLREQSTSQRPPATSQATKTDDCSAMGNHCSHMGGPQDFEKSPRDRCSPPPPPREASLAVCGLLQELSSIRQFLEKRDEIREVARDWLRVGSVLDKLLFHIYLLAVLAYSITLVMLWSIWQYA
Test: Antagonist activity at human 5HT3A receptor expressed in HEK293 cells assessed as inhibition of serotonin-induced inward Na+ current at >= 10 uM
Type: functional, cell-based

| Structure (SMILES) | inhibition [%] |
| --- | --- |
| c1ccc2nc3ccccc3cc2c1 | < 50 |
| CCOc1ccccc1O[C@@H](c1ccccc1)[C@@H]1CNCCO1 | > 50 |
| O=C(CCCN1CCC(O)(c2ccc(Cl)cc2)CC1)c1ccc(F)cc1 | < 50 |
| FC(F)(F)c1ccc2c(c1)Nc1ccccc1S2 | < 50 |
| CNCCCN1c2ccccc2CCc2ccccc21 | > 50 |
| CSc1ccc2c(c1)N(CCC1CCCCN1C)c1ccccc1S2 (centres undefined) | > 50 |
| CN(C)CCCN1c2ccccc2CCc2ccccc21 | > 50 |
| c1ccc2c(c1)CCc1ccccc1N2 | > 50 |
| c1ccc2c(c1)CCc1ccccc1C2 | < 50 |
| NC(=O)N1c2ccccc2CCc2ccccc21 | < 50 |
| CNCCC(Oc1ccc(C(F)(F)F)cc1)c1ccccc1 (centres undefined) | > 50 |
| O=C(NCCN1CCOCC1)c1ccc(Cl)cc1 | < 50 |
| CC(CN(C)C)CN1c2ccccc2CCc2ccccc21 (centres undefined) | > 50 |
| Cc1nc2n(c(=O)c1CCN1CCC(c3noc4cc(F)ccc34)CC1)CCCC2 | < 50 |
| OCCN1CCN(CCCN2c3ccccc3Sc3ccc(C(F)(F)F)cc32)CC1 | > 50 |
| c1ccc2c(c1)Nc1ccccc1S2 | < 50 |
| OCCN1CCN(CCC=C2c3ccccc3Sc3ccc(C(F)(F)F)cc32)CC1 | > 50 |
| COc1ccc2c(c1)N(C[C@H](C)CN(C)C)c1ccccc1S2 | < 50 |
| NC(=O)N1c2ccccc2C=Cc2ccccc21 | < 50 |
